The values below come from ChEMBL document CHEMBL5137058, “Therapeutic Strategies to Target the Androgen Receptor” (J Med Chem, 2022).

Where only a bound is given, the exact number is not on record here.

Series [1] addresses T1, Androgen receptor (Homo sapiens, UniProt P10275).
T1 sequence (P10275 whole entry): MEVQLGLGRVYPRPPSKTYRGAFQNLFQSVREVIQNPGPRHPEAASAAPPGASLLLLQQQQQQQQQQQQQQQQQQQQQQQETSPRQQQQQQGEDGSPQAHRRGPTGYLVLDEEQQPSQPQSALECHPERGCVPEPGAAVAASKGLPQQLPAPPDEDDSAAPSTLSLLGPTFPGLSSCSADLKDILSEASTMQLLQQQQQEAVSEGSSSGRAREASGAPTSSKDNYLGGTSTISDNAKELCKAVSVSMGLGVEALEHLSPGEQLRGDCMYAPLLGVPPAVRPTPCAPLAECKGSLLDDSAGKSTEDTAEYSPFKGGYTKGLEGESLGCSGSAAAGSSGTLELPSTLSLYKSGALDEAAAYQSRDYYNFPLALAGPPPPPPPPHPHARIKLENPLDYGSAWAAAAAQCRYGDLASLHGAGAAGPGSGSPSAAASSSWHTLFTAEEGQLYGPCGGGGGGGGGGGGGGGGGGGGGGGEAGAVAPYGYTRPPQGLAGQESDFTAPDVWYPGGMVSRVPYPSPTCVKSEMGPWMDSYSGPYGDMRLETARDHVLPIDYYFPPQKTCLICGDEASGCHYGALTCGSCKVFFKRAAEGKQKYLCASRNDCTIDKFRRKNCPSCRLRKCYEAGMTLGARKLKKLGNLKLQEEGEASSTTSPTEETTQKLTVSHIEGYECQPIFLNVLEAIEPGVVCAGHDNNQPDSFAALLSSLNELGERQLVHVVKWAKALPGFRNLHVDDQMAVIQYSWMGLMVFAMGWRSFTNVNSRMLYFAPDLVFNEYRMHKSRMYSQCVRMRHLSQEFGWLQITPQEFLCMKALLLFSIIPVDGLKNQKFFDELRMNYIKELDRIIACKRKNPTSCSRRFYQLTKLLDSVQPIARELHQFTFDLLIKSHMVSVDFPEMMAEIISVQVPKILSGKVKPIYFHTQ
As to the kind of experiment: Antagonist activity at Androgen receptor in human MDA-kb2 cells. Type of series: cell-based.

Series [2] in a line: In vivo antagonist activity at Androgen receptor assessed as reduction in wax ester in golden hamster ear model. Type of series: functional, Cricetinae. Also on record: concentration or dose not given beside the values.
For series [3], the target named is T1, Androgen receptor. Briefly: Displacement of [3H]DHT from Androgen receptor expressed in human MDA-MB-453 cells. Type of series: cell-based.
Series [4] addresses T1, Androgen receptor. Briefly: Antagonist activity at Androgen receptor in human MDA-MB-453 cells measured by SEAP reporter gene assay. It counts as cell-based. (In a reporter assay the amount or activity of a reporter protein is the signal.)
Series [5] concerns the target T1, Androgen receptor. Briefly: Antagonist activity at Androgen receptor in human LNCaP cells measured by SEAP reporter gene assay. Type of series: cell-based.
The target in series [6] is T1, Androgen receptor. As to the kind of experiment: Binding affinity to Androgen receptor (unknown origin). The conditions noted are these: read-out: IC50.
Series [7] in a line: Oral bioavailability in mouse. It counts as ADME, organism-based. Conditions: in vivo.
The target in series [8] is T2, Protein cereblon/Androgen receptor/Cullin-4A (Homo sapiens, UniProt P10275+Q96SW2+Q13619). As to the kind of experiment: Protac activity at CRBN/Cullin 4A/Androgen receptor in human VCaP cells assessed as Androgen receptor degradation. It counts as cell-based.
The target of series [9] is T2, Protein cereblon/Androgen receptor/Cullin-4A. As to the kind of experiment: Protac activity at CRBN/Cullin 4A/Androgen receptor in human LNCaP cells assessed as Androgen receptor degradation. It counts as cell-based.
A further series concerns LNCaP. As to the kind of experiment: Antiproliferative activity against human LNCaP cells. Type of series: functional, cell-based.
Series [10] addresses T1, Androgen receptor. As to the kind of experiment: Binding affinity to human Androgen receptor.
Series [11] has as its target T1, Androgen receptor. As to the kind of experiment: Agonist activity at human Androgen receptor.
In series [12] the target is Androgen receptor (Mus musculus, UniProt P19091). As to the kind of experiment: Agonist activity at Androgen receptor (unknown origin) transfected in mouse C2C12 cells measured by luciferase reporter assay. Type of series: cell-based.
For series [13], the target named is T1, Androgen receptor. As to the kind of experiment: Agonist activity to human Androgen receptor in African green monkey COS-7 cells measured by luciferase reporter assay. It counts as cell-based.
The target in series [14] is T1, Androgen receptor. Briefly: Displacement of [3H]methyltrienolone from Androgen receptor expressed in human MDA-MB-453 cells. Type of series: cell-based. (In a radioligand displacement assay an active substance lowers the binding of a labelled ligand.)
Series [15] has as its target Androgen receptor (Homo sapiens, UniProt P10275, T878A). As to the kind of experiment: Binding affinity to bicalutamide-resistant Androgen receptor T878A mutant (unknown origin).
The subject of another series is SC-3. Briefly: Antiproliferative activity against mouse SC-3 cells. Type of series: functional, cell-based.
In a further series the test system is Rattus norvegicus. Briefly: Anti-androgenic activity in testosterone-treated castrated rat assessed as reduction in prostate weight at 2 mg administered orally per day for 5 days. The conditions noted are these: route po, time 5 day; for Activity: at 2 mg. Type of series: functional. Also on record: Activity: scale not given: the % may be the effect or the level left.

Series [16] concerns the target T1, Androgen receptor. As to the kind of experiment: Partial agonist activity at human Androgen receptor.
Series [17] concerns the target T1, Androgen receptor. As to the kind of experiment: Agonist activity at human Androgen receptor expressed in human MDA-MB-453 cells cotransfected with MMTV-Luc assessed as transactivation modulation of AR measured by luciferase reporter assay. Type of series: cell-based.
In series [18] the target is T3, Androgen receptor (Homo sapiens) (UniProt P10275).
T3 sequence (whole entry): T1 sequence (P10275 whole entry)
Briefly: Agonist activity at human Androgen receptor expressed in human MDA-MB-453 cells cotransfected with MMTV-Luc assessed as transactivation modulation of AR measured by luciferase reporter assay relative to control. Type of series: cell-based. The conditions noted are these: filed as agonist.

T2 sequence (Q96SW2 whole entry, one chain of several): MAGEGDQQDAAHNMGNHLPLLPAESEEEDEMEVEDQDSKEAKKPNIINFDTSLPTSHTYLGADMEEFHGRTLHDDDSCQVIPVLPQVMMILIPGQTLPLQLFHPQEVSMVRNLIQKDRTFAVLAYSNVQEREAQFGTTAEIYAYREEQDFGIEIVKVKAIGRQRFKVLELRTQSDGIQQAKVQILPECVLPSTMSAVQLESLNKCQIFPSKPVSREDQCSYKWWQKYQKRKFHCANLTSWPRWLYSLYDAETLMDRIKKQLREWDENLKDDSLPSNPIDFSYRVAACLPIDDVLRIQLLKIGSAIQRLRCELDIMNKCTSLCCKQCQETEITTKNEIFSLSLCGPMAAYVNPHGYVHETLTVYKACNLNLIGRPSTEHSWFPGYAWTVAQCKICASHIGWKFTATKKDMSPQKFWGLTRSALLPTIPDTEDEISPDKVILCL
T2 sequence (Q13619 whole entry, one chain of several): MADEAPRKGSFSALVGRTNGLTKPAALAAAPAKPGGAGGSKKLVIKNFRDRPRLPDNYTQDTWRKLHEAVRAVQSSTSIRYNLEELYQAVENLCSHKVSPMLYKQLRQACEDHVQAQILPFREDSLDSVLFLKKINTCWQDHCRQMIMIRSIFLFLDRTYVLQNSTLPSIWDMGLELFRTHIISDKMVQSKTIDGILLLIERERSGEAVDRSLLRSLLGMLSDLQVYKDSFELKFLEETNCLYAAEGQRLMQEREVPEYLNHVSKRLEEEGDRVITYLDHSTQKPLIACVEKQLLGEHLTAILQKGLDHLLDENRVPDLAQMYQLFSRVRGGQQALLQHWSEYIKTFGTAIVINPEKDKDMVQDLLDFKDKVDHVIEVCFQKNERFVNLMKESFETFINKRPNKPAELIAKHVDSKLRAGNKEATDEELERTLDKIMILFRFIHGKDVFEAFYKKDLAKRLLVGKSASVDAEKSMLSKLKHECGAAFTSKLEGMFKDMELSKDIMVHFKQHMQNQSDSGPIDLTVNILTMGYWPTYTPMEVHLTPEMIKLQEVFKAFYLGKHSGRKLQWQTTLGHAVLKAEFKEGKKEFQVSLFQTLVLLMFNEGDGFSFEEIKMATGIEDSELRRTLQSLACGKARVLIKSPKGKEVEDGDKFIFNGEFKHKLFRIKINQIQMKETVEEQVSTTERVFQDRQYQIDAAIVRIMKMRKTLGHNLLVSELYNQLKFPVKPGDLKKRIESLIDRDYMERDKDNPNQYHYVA
Chain of Androgen receptor (Mus musculus, UniProt P19091) (P19091 whole entry): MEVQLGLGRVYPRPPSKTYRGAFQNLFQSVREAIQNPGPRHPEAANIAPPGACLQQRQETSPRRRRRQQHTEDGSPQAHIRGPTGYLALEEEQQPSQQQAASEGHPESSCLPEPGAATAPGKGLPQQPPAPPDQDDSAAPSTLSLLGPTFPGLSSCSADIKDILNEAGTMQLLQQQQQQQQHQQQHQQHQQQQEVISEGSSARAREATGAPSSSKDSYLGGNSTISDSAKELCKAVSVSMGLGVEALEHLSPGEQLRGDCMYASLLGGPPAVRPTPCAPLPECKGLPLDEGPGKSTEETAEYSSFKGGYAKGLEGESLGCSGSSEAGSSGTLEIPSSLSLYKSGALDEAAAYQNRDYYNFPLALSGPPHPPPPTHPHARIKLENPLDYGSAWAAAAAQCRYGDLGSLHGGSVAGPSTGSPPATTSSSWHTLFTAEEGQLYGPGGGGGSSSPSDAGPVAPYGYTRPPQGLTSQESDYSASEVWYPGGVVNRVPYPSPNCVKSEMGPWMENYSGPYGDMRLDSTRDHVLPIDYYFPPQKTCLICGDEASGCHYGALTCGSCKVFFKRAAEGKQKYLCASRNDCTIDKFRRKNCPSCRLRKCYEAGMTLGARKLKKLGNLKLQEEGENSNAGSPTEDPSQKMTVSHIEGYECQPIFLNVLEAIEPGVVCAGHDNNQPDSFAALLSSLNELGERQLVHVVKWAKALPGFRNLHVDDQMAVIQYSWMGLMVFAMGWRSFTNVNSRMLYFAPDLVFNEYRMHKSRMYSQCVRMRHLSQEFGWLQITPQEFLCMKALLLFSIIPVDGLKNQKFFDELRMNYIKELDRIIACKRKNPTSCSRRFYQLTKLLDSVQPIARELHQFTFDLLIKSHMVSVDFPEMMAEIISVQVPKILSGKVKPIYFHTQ
Chain of Androgen receptor (Homo sapiens, UniProt P10275, T878A) (P10275 whole entry T878A): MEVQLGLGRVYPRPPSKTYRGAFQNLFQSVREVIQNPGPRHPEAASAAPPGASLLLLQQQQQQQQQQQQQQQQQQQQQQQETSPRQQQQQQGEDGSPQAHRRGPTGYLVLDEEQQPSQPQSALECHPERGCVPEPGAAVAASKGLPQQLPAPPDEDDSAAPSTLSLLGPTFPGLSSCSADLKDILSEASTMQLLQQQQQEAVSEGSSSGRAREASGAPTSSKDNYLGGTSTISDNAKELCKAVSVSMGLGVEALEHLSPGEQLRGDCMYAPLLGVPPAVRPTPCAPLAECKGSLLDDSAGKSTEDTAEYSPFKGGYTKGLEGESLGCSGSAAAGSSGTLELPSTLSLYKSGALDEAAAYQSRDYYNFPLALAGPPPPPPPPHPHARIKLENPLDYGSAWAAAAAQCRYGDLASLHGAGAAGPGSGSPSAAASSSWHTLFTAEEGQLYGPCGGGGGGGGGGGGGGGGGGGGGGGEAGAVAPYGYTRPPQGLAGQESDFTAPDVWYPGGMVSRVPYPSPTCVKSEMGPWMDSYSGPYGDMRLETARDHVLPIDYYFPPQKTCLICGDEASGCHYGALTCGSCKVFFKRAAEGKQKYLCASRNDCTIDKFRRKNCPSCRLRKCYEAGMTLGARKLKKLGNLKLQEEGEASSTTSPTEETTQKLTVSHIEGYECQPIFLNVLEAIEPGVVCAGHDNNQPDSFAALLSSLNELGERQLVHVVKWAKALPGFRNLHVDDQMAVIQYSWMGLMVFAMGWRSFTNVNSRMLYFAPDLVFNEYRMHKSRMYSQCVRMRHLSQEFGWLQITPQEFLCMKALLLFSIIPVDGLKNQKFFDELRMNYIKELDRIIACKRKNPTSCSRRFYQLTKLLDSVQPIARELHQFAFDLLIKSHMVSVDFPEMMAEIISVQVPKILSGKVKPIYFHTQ

Broadly, the IC50 is the concentration at which inhibition is half-maximal. In the case of `N#Cc1ccc(-c2ccccc2O)cc1C(F)(F)F`, the IC50 against Androgen receptor [1] was found to be 0.2 nM. The Activity in [2] came out at 86%.

As usually defined, the Ki is the equilibrium dissociation constant of an inhibitor or competing ligand from its target. For `N#Cc1ccc(N2C(=O)[C@H]3[C@@H]4C[C@@H](CN4C(=O)Oc4ccc(F)cc4)N3C2=O)cc1C(F)(F)F`, on Androgen receptor [3], the Ki stood at 18 nM. Besides, the IC50 against Androgen receptor [4] was determined as 350 nM; at Androgen receptor [5] it was 3920 nM.

Take `N#CCC(O)(c1nc2cc(Cl)c(Cl)cc2[nH]1)C(F)(F)F` (centres undefined): the IC50 at Androgen receptor [6] was determined as 2 nM.

The bioavailability is the share of a dose that reaches the circulation, judged against a reference dose that is usually intravenous. A word on the DC50: it is the concentration giving 50% degradation. In turn, `CC1(C)[C@H](NC(=O)c2ccc(N3CCN(CC4CCN(c5ccc6c(c5)C(=O)N(C5CCC(=O)NC5=O)C6=O)CC4)CC3)cc2)C(C)(C)[C@H]1Oc1ccc(C#N)c(Cl)c1` (some centres undefined) registered a bioavailability in series [7] of 67%. Also, the DC50 in [8] is 0.28 nM; in [9], 8.3 nM.

`CC(O)(CS(=O)(=O)c1ccc(F)cc1)C(=O)Nc1ccc(C#N)c(C(F)(F)F)c1` (centres undefined) [BICALUTAMIDE]: half-maximal inhibition in the series on LNCaP (IC50) was put at 160 nM.

Broadly, the EC50 is the concentration at which the effect is half-maximal. For the molecule `CC(C)(C)OC(=O)c1cccc2oc(=O)c3c(ccc4[nH]c(=O)cc(C(F)(F)F)c43)c12`, the Ki on Androgen receptor [10] turned out to be 8.7 nM. This molecule also gave an EC50 on Androgen receptor [11] of 1.1 nM.

`CO[C@@H]1C(c2ccc(C#N)c(Cl)c2C)=NN2CC[C@H](O)[C@@H]12` gave an EC50 at Androgen receptor [12] of 0.5 nM.

In the case of `C[C@H]1[C@@H](O)CCN1c1ccc(C#N)c2ccccc12`, the IC50 on Androgen receptor [10] was determined as 2.4 nM. A half-maximal effect at Androgen receptor [13] (EC50) was put at 0.32 nM.

Regarding `CC1(C)C(=O)N(c2ccc(C#N)c(Cl)c2)C(=S)N1CCCS(N)(=O)=O`, the IC50 in the series on LNCaP is 410 nM.

As for `CC(O)(C[S+]([O-])c1ccc(Cl)c(Cl)c1)c1cc2cc(Cl)c(C(F)(F)F)cc2[nH]1` (centres undefined), at Androgen receptor [6], the IC50 stood at 100 nM.

The molecule `C[C@]12COC(=O)C[C@@H]1CC[C@@H]1[C@@H]2CC[C@@]2(C)[C@H]1CC[C@]2(C)O` [OXANDROLONE] displayed a Ki at Androgen receptor [10] of 62 nM.

For the molecule `Cc1c(N2C(=O)[C@@H]3[C@H](O)CCN3C2=O)ccc(C#N)c1Cl`, at Androgen receptor [12], the EC50 was found to be 2.3 nM.

Turning to `N#Cc1ccc(O[C@@H]2CCCC[C@H]2C#N)cc1C(F)(F)F`, in [2], the Activity was 64%.

The molecule `CN1C(=O)C(F)=C[C@]2(C)[C@H]3CC[C@]4(C)[C@@H](C(=O)NCc5nc6cccnc6[nH]5)CC[C@H]4[C@@H]3CC[C@@H]12` [MK-0773] gave an IC50 at Androgen receptor [14] of 6.6 nM.

`Cn1cc(N(Cc2ccccc2)c2ccc([N+](=O)[O-])cc2)cc1C(=O)N1CCCC1` yielded a Ki on Androgen receptor [15] of 6 nM. Moreover, half-maximal inhibition in the series on SC-3 (IC50) required 440 nM.

Regarding `Cc1ccccc1Sc1ccc(C#N)cc1Cl`, the Activity in series [2] is recorded as over 80%.

Regarding `CC(O)(c1nc2cc(Cl)c(Cl)cc2[nH]1)C(F)(F)F` (centres undefined), in the series on Rattus norvegicus, the ID50 turned out to be 0.32 mg/day and the Activity was 96%.

On Androgen receptor [16], `N#Cc1ccc(N2C(=O)N[C@@](CO)(c3ccccc3)C2=O)cc1C(F)(F)F` gave an IC50 of 13 nM.

As to `Cc1ccccc1Oc1ccc(C#N)c(Cl)c1`, the Activity in [2] is reported as over 87%.

With `C[C@@H]1CC[C@H]([C@@H](O)C(F)(F)F)N1c1ccc2[nH]c(=O)cc(C(F)(F)F)c2c1` [LGD-2941], the Ki on Androgen receptor [10] was 6.5 nM.

On to `Cc1c(C(C)(O)C(F)(F)F)[nH]c2cc(C(F)(F)F)c(C#N)cc12` (centres undefined), for which, in the series on Rattus norvegicus, the ID50 came to 0.13 mg/day and the Activity is reported as 80%.

In turn, `CN1C(=O)C(F)=C[C@]2(C)[C@H]3CC[C@]4(C)[C@@H](O)/C(=C/c5cncnc5)C[C@H]4[C@@H]3CC[C@@H]12` yielded an IC50 at Androgen receptor [14] of 59 nM. At Androgen receptor [17], the half-maximal effective concentration (EC50) was 17 nM. Moreover, the Activity in series [18] turned out to be 141%.
